Results taken from US20240226098A1, “COMPOUNDS AND METHODS FOR MODULATING SPLICING” (REMIX THERAPEUTICS INC., priority 2020, published 2024).

Assays:
Assay type in all cases: cell-based
SMN2 CJ mRNA = test: Gene panel canonical junction qPCR assay: decrease in SMN2 CJ mRNA; conditions: protocol as for Table 2, read-out: SMN2 (IC50, decrease in CJ mRNA levels)
How it was run: (§1)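 A673 or K562 cells were treated 24 h at 37 °C with an 11-point 3-fold dilution series (top dose 10 uM final, DMSO ≤0.25%). Lysates went to RT-qPCR for the canonical exon-exon junction transcript, normalized to GAPDH, GUSB or PPIA. Levels were taken as ΔΔCt versus DMSO control and converted to RQ via 2^(−ΔΔCt).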

Target C CJ mRNA = test: Gene panel canonical junction qPCR assay: decrease in Target C CJ mRNA; conditions: protocol as for Table 2, read-out: Target C (IC50, decrease in CJ mRNA levels)
How it was run: as §1

[1] = system: HTT mRNA, canonical junction (CJ); test: Splicing assay (RT-qPCR): decrease in HTT canonical junction (CJ) mRNA; conditions: A673 or K562 cell line, 24 hours treatment, top dose 10 uM; concentration having 50% response in CJ decrease
How it was run: (§2)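 A673 (DMEM, 10% FBS) or K562 (IMDM, 10% FBS) cells treated 24 h at 37 °C with 11-point 3-fold dilutions, top 10 uM, ≤0.25% DMSO. Lysates analysed by one-step RT-qPCR for HTT CJ and AJ isoforms. Normalised to PPIA (A673) or GAPDH/GUSB (K562).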

[2] = system: HTT mRNA, alternative junction (AJ); test: Splicing assay (RT-qPCR): increase in HTT alternative junction (AJ) mRNA; conditions: A673 or K562 cell line, 24 hours treatment, top dose 10 uM; concentration having 50% response in AJ increase
How it was run: as §2

HTT CJ mRNA = test: Gene panel canonical junction qPCR assay: decrease in HTT CJ mRNA; conditions: protocol as for Table 2, read-out: HTT (IC50, decrease in CJ mRNA levels)
How it was run: as §1

Row | SMILES | IC50 (SMN2 CJ mRNA) | IC50 (Target C CJ mRNA) | IC50 (HTT CJ mRNA) | AC50 [1] | AC50 [2]
1 | Cc1nc2c(F)cc(NC(=O)c3ccc(N4CCNCC4)c4ccnnc34)cc2o1 [Compound 117, N-(4-fluoro-2-methyl-1,3-benzoxazol-6-yl)-5-(piperazin-1-yl) cinnoline-8-carboxamide] | < 100 nM | 1000 to 10000 nM | 1000 to 10000 nM | 1000 to 10000 nM | 1000 to 10000 nM
2 | Cc1cn2cc(NC(=O)c3ccc(N4CCN(C)C(C)C4)c4ccnnc34)cc(F)c2n1 (stereo in doubt) [Compound 150, 5-[(3R)-3,4-dimethylpiperazin-1-yl]-N-[8-fluoro-2-methylimidazo[1,2-a]pyridin-6-yl]cinnoline-8-carboxamide] | < 100 nM | 1000 to 10000 nM | 1000 to 10000 nM | 1000 to 10000 nM | 1000 to 10000 nM
3 | Cc1cn2nc(NC(=O)c3ccc(N4CCNCC4)c4ccnnc34)cc2c(C)n1 [Compound 123, N-[4,6-dimethylpyrazolo[1,5-a]pyrazin-2-yl]-5-(piperazin-1-yl)cinnoline-8-carboxamide] | 1000 to 10000 nM | 1000 to 10000 nM | 1000 to 10000 nM | 1000 to 10000 nM | 1000 to 10000 nM
4 | Cc1cn2cc(NC(=O)c3ccc(N4CCN5CCCC5C4)c4ccnnc34)cc(F)c2n1 (stereo in doubt) [Compound 153, 5-[(8aS)-hexahydro-1H-pyrrolo[1,2-a]pyrazin-2-yl]-N-[8-fluoro-2-methylimidazo[1,2-a]pyridin-6-yl]cinnoline-8-carboxamide] | < 100 nM | 1000 to 10000 nM | 100 to 1000 nM | 100 to 1000 nM | 100 to 1000 nM
5 | Cc1cn2cc(NC(=O)c3ccc(N4CCNC(C)C4)c4ccnnc34)cc(F)c2n1 (stereo in doubt) [Compound 146, N-[8-fluoro-2-methylimidazo[1,2-a]pyridin-6-yl]-5-[(3S)-3-methylpiperazin-1-yl]cinnoline-8-carboxamide] | < 100 nM | > 10000 nM | 100 to 1000 nM | 100 to 1000 nM | 100 to 1000 nM
6 | Cc1cc2c(N3CCNCC3)ccc(C(=O)Nc3cc(F)c4nc(C)cn4c3)c2nn1 [Compound 159] | < 100 nM | 1000 to 10000 nM | 100 to 1000 nM | 100 to 1000 nM | 100 to 1000 nM

Further lines, with some results ahead:

Row | IC50 (SMN2 CJ mRNA) | IC50 (Target C CJ mRNA) | IC50 (HTT CJ mRNA) | SMILES | AC50 [1] | AC50 [2]
7 | < 100 nM | 1000 to 10000 nM | 1000 to 10000 nM | Cc1cn2cc(NC(=O)c3ccc(N4CCNCC4)c4ccnnc34)cc(Cl)c2n1 [Compound 124, N-[8-chloro-2-methylimidazo[1,2-a]pyridin-6-yl]-5-(piperazin-1-yl)cinnoline-8-carboxamide] | 1000 to 10000 nM | 1000 to 10000 nM
8 | < 100 nM | 1000 to 10000 nM | 1000 to 10000 nM | Cc1cn2cc(NC(=O)c3ccc(N4CCN(C)CC4)c4ccnnc34)cc(F)c2n1 [Compound 127, N-[8-fluoro-2-methylimidazo[1,2-a]pyridin-6-yl]-5-(4-methylpiperazin-1-yl) cinnoline-8-carboxamide] | 1000 to 10000 nM | 1000 to 10000 nM
9 | 1000 to 10000 nM | 1000 to 10000 nM | 100 to 1000 nM | Cc1cn2cc(NC(=O)c3ccc(C4CCNCC4)c4ccnnc34)cc(F)c2n1 [Compound 103, N-[8-fluoro-2-methylimidazo[1,2-a]pyridin-6-yl]-5-(piperidin-4-yl) cinnoline-8-carboxamide] | 1000 to 10000 nM | 100 to 1000 nM
10 | < 100 nM | 100 to 1000 nM | 1000 to 10000 nM | Cc1cn2cc(NC(=O)c3ccc(N4CCN5CCCC5C4)c4ccnnc34)cc(F)c2n1 (stereo in doubt) [Compound 154, 5-[(8aR)-hexahydro-1H-pyrrolo[1,2-a]pyrazin-2-yl]-N-[8-fluoro-2-methylimidazo[1,2-a]pyridin-6-yl]cinnoline-8-carboxamide] | 1000 to 10000 nM | 1000 to 10000 nM
